# Assay: Skin moisture after application of moisturizing compositions (Corneometer)
# Assay type: in vivo
# Details: applied to skin
# Protocol: Glycerol monostearate (GMS) cream moisturizing compositions containing 2% glycerin (Sample 1), 1% sodium erythorbate (Sample 2), 1% δ-gluconolactone (Sample 3), or 2% of a biodegradation prevention mixture containing 75% (by weight) sodium benzoate and 25% (by weight) sodium erythorbate were tested as follows.
# The GMS cream was prepared as follows. Polyoxyethylene glyceryl monostearate, glyceryl monostearate, cetearyl alcohol, and myristyl propionate were mixed and heated to 60° C. in a first container. In four separate containers, glycerin, sodium erythorbate, δ-gluconolactone, or the aforementioned biodegradation prevention mixture were mixed with sterile deionized water and heated to 60° C. The solution in the first container was poured into each container containing glycerin, sodium erythorbate, δ-gluconolactone, or the biodegradation prevention mixture to produce the desired concentrations, e.g., 2% glycerin (w/w) (Sample 1), 1% sodium erythorbate (w/w) (Sample 2), 1% δ-gluconolactone (w/w) (Sample 3), or 2% biodegradation prevention mixture (w/w) (Sample 4). The containers were maintained at 60° C. for 10 minutes, and then allowed to cool. The pH of the solution was adjusted to pH 7 with sodium hydroxide to yield the GMS cream.
# The moisturizing compositions were applied once to skin and skin moisture measurements were taken over a 7 day period following administration. […]
smiles,measurement,value
O=C1O[C@H](CO)[C@@H](O)[C@H](O)[C@H]1O [δ-gluconolactone],Skin moisturization compared with known moisturizers such as glycerin,moisturize skin more effectively than many known moisturizers
O=C1O[C@H]([C@H](O)CO)C([O-])=C1O.[Na+] [sodium erythorbate],Skin moisturization compared with known moisturizers such as glycerin,moisturize skin more effectively than many known moisturizers

# — US20060093634A1, “Personal care compositions and concentrates for making the same” (Lonza Inc., priority 2004, published 2006)
